Source: publication PMC4447598 (Annals of neurology, 2015)
“And” between values parts separate entries of the source, which are not always exact repeats. Identical values can stand only once.

Key:
APP/PS1 transgenic mice [1] = assay: Synapse density in dentate gyrus; type: in vivo, mouse; details: 5 mg/kg/d, 7 weeks
APP/PS1 transgenic mice [2] = assay: Glial reaction in cortex; type: in vivo, mouse; details: 5 mg/kg/d, 7 weeks
Pyk2 [3] = molecular target: Pyk2 (Homo sapiens, UniProt Q14289); assay: LanthaScreen Europium Kinase Binding Assay
Sequence of Pyk2 (Homo sapiens, UniProt Q14289) (Q14289 whole entry): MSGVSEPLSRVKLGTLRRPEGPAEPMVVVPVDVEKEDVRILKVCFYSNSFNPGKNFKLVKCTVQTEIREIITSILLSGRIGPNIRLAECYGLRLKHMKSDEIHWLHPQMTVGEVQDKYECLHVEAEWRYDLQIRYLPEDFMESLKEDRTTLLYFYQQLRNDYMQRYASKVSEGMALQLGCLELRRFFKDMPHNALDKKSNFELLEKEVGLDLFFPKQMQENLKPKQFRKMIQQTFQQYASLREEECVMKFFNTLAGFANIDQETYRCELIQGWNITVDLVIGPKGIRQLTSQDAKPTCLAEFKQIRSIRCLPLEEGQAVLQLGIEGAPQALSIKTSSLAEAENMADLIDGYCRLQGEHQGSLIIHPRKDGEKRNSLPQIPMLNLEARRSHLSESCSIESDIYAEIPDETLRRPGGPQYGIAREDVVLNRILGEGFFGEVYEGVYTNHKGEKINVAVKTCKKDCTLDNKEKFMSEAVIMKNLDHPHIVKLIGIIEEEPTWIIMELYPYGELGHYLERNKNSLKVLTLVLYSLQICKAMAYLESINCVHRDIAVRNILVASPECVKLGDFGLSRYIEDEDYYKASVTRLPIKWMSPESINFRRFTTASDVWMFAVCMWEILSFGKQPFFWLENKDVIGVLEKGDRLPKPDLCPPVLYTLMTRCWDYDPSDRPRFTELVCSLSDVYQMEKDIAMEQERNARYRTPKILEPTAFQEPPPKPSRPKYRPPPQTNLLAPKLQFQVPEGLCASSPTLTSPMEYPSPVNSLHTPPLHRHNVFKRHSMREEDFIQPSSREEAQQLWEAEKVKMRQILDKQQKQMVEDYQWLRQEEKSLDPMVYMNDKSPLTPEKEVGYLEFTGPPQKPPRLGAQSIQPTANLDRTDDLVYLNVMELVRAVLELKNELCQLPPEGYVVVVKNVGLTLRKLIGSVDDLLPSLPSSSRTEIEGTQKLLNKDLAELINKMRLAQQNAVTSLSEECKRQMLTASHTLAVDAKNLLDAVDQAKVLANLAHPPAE

Pyk2 [4] = assay: Activated pPyk2 levels in brain of APP/PS1 and WT mice; type: in vivo, mouse
[5] = AZD0530 pharmacokinetics in mice; type: in vivo, mouse
[6] = system: NR2B subunit of NMDA-type Glu receptors; assay: Acute brain slice assay, pY-1472 NR2B immunoblot relative to total NR2B; type: cell-based, mouse
APP/PS1 transgenic mice [7] = assay: Novel object recognition; type: in vivo, mouse; details: 5 mg/kg/d, 6 weeks treatment
Tau = Tau biochemistry and histology in 3xTg-AD mice; type: in vivo, mouse
APP/Aβ = assay: APP metabolism and Aβ accumulation in brain of treated mice; type: in vivo, mouse; details: 5 mg/kg/d
[8] = ref [27]; cited from earlier work
Chronic = type: in vivo, beagle dogs
Pyk2 [9] = assay: Acute brain slice assay, p-Pyk2; type: cell-based, mouse
APP/PS1 transgenic mice [10] = assay: Morris water maze; type: in vivo, mouse
[11] = RIPA extracts of TBS-insoluble material, 5 mg/kg/d 40 days
[12] = RIPA-insoluble fractions, 5 mg/kg/d 40 days
[13] = APP/PS1 mice, 5 mg/kg/d, 1-2 weeks treatment
[14] = APP/PS1 mice, 5 mg/kg/d, 3-5 weeks treatment

CN1CCN(CCOc2cc(OC3CCOCC3)c3c(Nc4c(Cl)ccc5c4OCO5)ncnc3c2)CC1 [AZD0530, N-(5-chloro-1,3-benzodioxol-4-yl)-7-[2-(4-methylpiperazin-1-yl)ethoxy]-5-(tetrahydro-2H-pyran-4-yloxy)quinazolin-4-amine]
synapse density (PSD-95, SV2a puncta) (APP/PS1 transgenic mice [1]; APP/PS1 transgenic mice): fully restores synaptic puncta to WT levels | synapse density (PSD-95, SV2a puncta) (APP/PS1 transgenic mice [1]; WT mice): does not alter synapse density | astrocytic reaction (GFAP) (APP/PS1 transgenic mice [2]): no significant change | extent of microglial induction (Iba1) (APP/PS1 transgenic mice [2]): significantly reduced | IC50 (Pyk2 [3]): > 250 µM | Pyk2 substrate binding (Pyk2 [3]; AZD0530 at concentrations up to 100 μM): unaffected | increase of p(Y402)Pyk2 in hippocampal CA1 and CA3 cell body layers (histology) (Pyk2 [4]; APP/PS1 mice, 5 mg/kg/d for 7 weeks): reversed by AZD0530 treatment | pPyk2 level (Pyk2 [4]; WT mice): does not significantly alter pPyk2 | activated pPyk2 level (immunoblot), hippocampus (Pyk2 [4]; aged APP/PS1 mice, 5 mg/kg/d): reduces activated pPyk2 level to that of WT mice exposed to vehicle | inhibition at 5 mg/kg/day ([5]; Mus musculus, po, read-out: expected inhibition of Fyn kinase activity in brain): ≥ 50% | apparent brain half-life ([5]; mouse, 5 mg/kg/d for 3 days): 16 h | peak brain level ([5]; mouse, 5 mg/kg/d oral b.i.d., 30-60 min after dosing, 5 mg/kg/day): 27 ng/g and 50 nM | peak CSF level ([5]; mouse, 5 mg/kg/d, one pooled sample, 5 mg/kg/day): 7 ng/ml and 13 nM | CSF level as % of brain level ([5]; mouse, 6 oral b.i.d. doses, 30-60 min after dosing): about 35% | concentration at 12 h ([5]; mouse, CSF, oral, 5 mg/kg/day, trough CSF range calculated from multiple brain samples, 5 mg/kg/d): 3.1 ng/mL to 7.6 ng/mL and 5.8 nM to 14 nM | half-life ([5]; mouse, brain, oral, 5 mg/kg/day, apparent brain half-life, 5 mg/kg/d for 3 days): ~16 h | basal phosphorylation of NR2B ([6]; brain slices without Aβo): suppresses | Aβo-induced phosphorylation of NR2B ([6]; brain slices, 1 μM Aβo 30 min): full blocks | Novel Object Recognition performance (APP/PS1 transgenic mice [7]): performance equal to the WT mice | human Tau transgene mRNA (qRT-PCR) (Tau; 3xTg-AD mice, 5 mg/kg/d, data not shown): not changed | decrease of pTau pS396 vs control 3xTg (Tau; [11]): 53% | decrease of total Tau vs control 3xTg (Tau; [11]): 74% | decrease of insoluble human Tau (Tau; [12]): 56% | decrease of insoluble total Tau (Tau; [12]): 41% | APP/Aβ metabolism (APP/Aβ; 3xTg-AD mice, data not shown): no effect | APP fragments, Aβ plaque and different Aβ species vs vehicle-treated transgenic mice (APP/Aβ; APP/PS1 mice, 7 weeks): no difference | half-life of the compound in humans [8]: between one and two days | NOAEL at 273 days (Chronic; both, beagle, dog, in vivo, po): > 5 mg/kg/day | body weight, hematological and coagulation parameters vs vehicle (Chronic; dog, 0.5, 2 or 5 mg/kg/d, 273 days): no statistically significant difference | tolerability (Chronic; dog, 39 weeks oral gavage at 0.5, 2 and 5 mg/kg/day): tolerated at all dose levels tested | abnormal measurement or pathology (Chronic; dog, any group including 5 mg/kg/d, 273 days): No significantly abnormal measurement or evidence of pathology was detected | basal Pyk2 activation (Pyk2 [9]; brain slices without Aβo): suppresses | Aβo stimulation of Pyk2 activation (Pyk2 [9]; brain slices, 1 μM Aβo 30 min): blocks | water maze performance (APP/PS1 transgenic mice [10]; APP/PS1 mice, 2 mg/kg/d, 3-5 weeks treatment): fails to improve water maze performance | impaired rate of acquisition during swims to a hidden platform (APP/PS1 transgenic mice [10]; [13]): no improvement | memory recall during 60 sec probe trial (APP/PS1 transgenic mice [10]; [13]): no improvement | latencies to the hidden platform (spatial learning) (APP/PS1 transgenic mice [10]; [14]): eliminates the pre-existing transgenic deficit | probe trial, preference for target quadrant (APP/PS1 transgenic mice [10]; [14]): same strong preference for the target quadrant as do WT mice | latencies to a hidden platform (APP/PS1 transgenic mice [10]; WT mice, 5 mg/kg/d): not altered
